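Protocol summary: plate cells (96-well), add compound at 5 concentrations, incubate 48 h, interpolate endpoints linearly. The concentration for 50% growth inhibition is given as GI50.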 The source made the active and inactive calls. No stated cut-off is given here; in the data, active = GI50 up to about 1.1 µM and inactive = higher.
What was measured:
Test in all cases: inhibition of tumour cell growth, NCI panel, 48 h
DLD-1 = system: DLD-1
XF498 = system: XF498
RXF 631 = system: RXF 631
KM-20L2 = system: KM-20L2
M19-MEL = system: M19-MEL
HOP-18 = system: HOP-18
DMS-114 = system: DMS-114
BT-549 = system: BT-549
T47D = system: T47D

Compound | GI50 (DLD-1) | GI50 (XF498) | GI50 (RXF 631) | GI50 (KM-20L2) | GI50 (M19-MEL) | GI50 (HOP-18) | GI50 (DMS-114) | GI50 (BT-549) | GI50 (T47D)
CCOc1ccc(/N=C/c2ccc3ccccc3n2)cc1 | > 100 µM (inactive) | > 100 µM (inactive) | > 100 µM (inactive) | > 100 µM (inactive) | > 100 µM (inactive) | > 100 µM (inactive) | – | – | –
COC1OC(CO)C(O)C(OC(C)=O)C1NC(=O)N(CCCl)N=O (stereo not given) | > 100 µM (inactive) | > 100 µM (inactive) | > 100 µM (inactive) | > 100 µM (inactive) | > 100 µM (inactive) | > 100 µM (inactive) | > 100 µM (inactive) | – | –
Cc1cccc(NC(=O)/C(=N\NC(C)(C)C)C2NC(=S)NC2=O)c1C (stereo not given) | > 100 µM (inactive) | – | > 100 µM (inactive) | > 100 µM (inactive) | > 100 µM (inactive) | – | – | – | –
O=C1Nc2ccc([N+](=O)[O-])cc2/C1=N/Nc1ccc([N+](=O)[O-])cc1 | 17.8 µM (inactive) | 16.7 µM (inactive) | 24.7 µM (inactive) | 17.8 µM (inactive) | 16.1 µM (inactive) | – | 19.9 µM (inactive) | – | –
BrC1=CC=C2NCCCCCC/N=C3\C=CC(Br)=CC=C3NCCCCCC/N=C\2C=C1 | > 25.5 µM (inactive) | – | > 25.5 µM (inactive) | > 25.5 µM (inactive) | > 25.5 µM (inactive) | – | > 25.5 µM (inactive) | – | –
Cc1cc(NC(=O)NC(=O)c2ccccc2[N+](=O)[O-])ccc1Oc1ncc(Cl)cn1 | 0.0783 µM (active) | 0.0671 µM (active) | – | 0.0906 µM (active) | 0.316 µM (active) | 23.4 µM (inactive) | 0.0927 µM (active) | 29.4 µM (inactive) | 34.1 µM (inactive)
C[C@]12CCc3nonc3C1CC[C@@H]1C2CC[C@]2(C)C(=O)/C(=N\O)CC12 (stereo not given in full) | > 100 µM (inactive) | > 100 µM (inactive) | > 100 µM (inactive) | > 100 µM (inactive) | > 100 µM (inactive) | > 100 µM (inactive) | > 100 µM (inactive) | – | –
O=C(O)C1CCc2nnc(-c3ccccc3)n21 (stereo not given) | > 100 µM (inactive) | – | > 100 µM (inactive) | > 100 µM (inactive) | > 100 µM (inactive) | > 100 µM (inactive) | > 100 µM (inactive) | – | –
COC(=O)c1[nH]c(=S)[nH]c(=O)c1-c1ccc(Cl)cc1 | > 50 µM (inactive) | > 50 µM (inactive) | > 50 µM (inactive) | > 50 µM (inactive) | > 50 µM (inactive) | – | > 50 µM (inactive) | – | –
CCCCOC(=O)C1C2CCC(O2)C1C(=O)OCCCC (stereo not given) | > 53.7 µM (inactive) | > 100 µM (inactive) | – | > 42.3 µM (inactive) | > 61.2 µM (inactive) | > 100 µM (inactive) | > 39.4 µM (inactive) | – | –
CC(=O)Nc1ccc(/C=N\N2C(=O)c3ccccc3C2=O)cc1 | > 100 µM (inactive) | > 100 µM (inactive) | – | > 100 µM (inactive) | > 100 µM (inactive) | > 100 µM (inactive) | > 100 µM (inactive) | – | –
COc1ccc2ccccc2c1C1OC(=O)c2ccccc21 (stereo not given) | > 100 µM (inactive) | – | > 100 µM (inactive) | > 100 µM (inactive) | > 100 µM (inactive) | > 100 µM (inactive) | 53.3 µM (inactive) | – | –
COc1ccccc1-n1c(NN)nc2ccc(Br)cc2c1=O | 34.8 µM (inactive) | 28.5 µM (inactive) | 45.3 µM (inactive) | 39.9 µM (inactive) | 42.5 µM (inactive) | 5.18 µM (inactive) | 33.6 µM (inactive) | – | –
Cc1cc2c(c3oc(C(O)(CO)C4CO4)cc(=O)c13)C(=O)c1c(O)cccc1C2=O (stereo not given) | < 0.01 µM (active) | < 0.01 µM (active) | < 0.01 µM (active) | < 0.01 µM (active) | < 0.01 µM (active) | < 0.01 µM (active) | < 0.01 µM (active) | 0.00296 µM (active) | 0.00163 µM (active)
CC1(C)CC23C(=O)N(c4ccccc4)C(Nc4ccccc4)=NC2=CC(C#N)=C(C#N)C3O1 (stereo not given) | 56.2 µM (inactive) | > 100 µM (inactive) | > 100 µM (inactive) | > 100 µM (inactive) | 94.6 µM (inactive) | – | 42.5 µM (inactive) | – | –
